Laboratory results published in US20230122510A1, “CANNABINOID DERIVATIVES” (CANOPY GROWTH CORPORATION, priority 2019, published 2023).

Key:
human CB2 receptor = biological target: T1, human CB2 receptor (Homo sapiens, UniProt P34972); test: CB2 radioligand competitive binding assay ([3H]CP 55,940 displacement); details: for IC50: displacement of 0.6 nM [3H]CP55,940, membranes of CHO-K1 cells expressing human CB2 receptor; for Selectivity CB2: fold difference between CB1 and CB2 binding, the receptor with higher binding affinity (CB2 over CB1)
T1 construct: host or cells: CHO-K1
T1 sequence (P34972 whole entry): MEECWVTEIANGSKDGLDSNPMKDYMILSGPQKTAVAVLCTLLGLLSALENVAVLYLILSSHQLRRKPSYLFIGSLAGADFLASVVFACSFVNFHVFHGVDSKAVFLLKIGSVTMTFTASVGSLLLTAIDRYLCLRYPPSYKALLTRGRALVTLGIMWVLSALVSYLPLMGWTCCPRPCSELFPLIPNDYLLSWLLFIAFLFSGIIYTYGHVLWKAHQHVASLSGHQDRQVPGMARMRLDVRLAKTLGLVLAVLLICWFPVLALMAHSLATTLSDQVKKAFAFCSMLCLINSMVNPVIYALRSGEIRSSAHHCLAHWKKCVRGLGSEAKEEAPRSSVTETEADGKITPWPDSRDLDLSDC
Method: Compounds of the present disclosure were tested for CB1 receptor binding affinity and for CB2 receptor binding affinity. As used herein, “binding affinity” is represented by the IC50 value, which was experimentally determined as described herein. The lower the IC50 value the higher the binding affinity. A compound of the present disclosure may be said to have “binding selectivity” if it has a higher binding affinity for one receptor compared to the other.
The membranes were prepared from CHO-K1 (Chinese hamster ovary) cells stably transfected with the human CB2 receptor (Cat. #ES-111-C; Perkin Elmer, Boston, Mass.). The cells were grown adherently and maintained in Ham's F12 medium containing 10% fetal bovine serum (FBS), penicillin, streptomycin and geneticin (G418) at 37° C. in a humid atmosphere of 5% CO2 following the manufacturer's instructions.
For membrane preparation the cells were washed with PBS and scraped off the plates in cold homogenization buffer (25 mM HEPES (pH 7.4), 2 mM EDTA) containing protease inhibitor cocktail (Sigma Cat. #P8340). The cell suspension was homogenized with a Pro-PK-01200D Polytron Homogenizer (Pro Scientific) and then centrifuged for 30 min at 120,000×g. The supernatant was discarded and the pellet was re-suspended in the homogenization buffer and stored at −80° C. until the time of use.
In this experiment, 3H radiolabeled CP 55,940, i.e. [3H]CP 55,940 (Perkin Elmer, Boston, Mass.), was used as a radioligand for the CB2 receptor to determine the binding affinity of compounds for the CB2 receptor (Scheme 6; above).
The competition binding experiments (single dose and dose-response) were performed by incubating 0.6 nM of [3H]CP55,940 (specific activity 101 Ci/mmol, Perkin Elmer) and different concentrations of compounds disclosed herein with membranes prepared as above from CHO-K1 cells expressing human CB2 receptor (1 μg of protein/well), 50 mM Tris-HCl (pH 7.4), 5 mM MgCl2, 1 mM CaCl2, and 2 mg/mL BSA.
For the single dose experiments, the compound stocks (usually 10 mM in DMSO) were diluted to working stocks in the binding buffer to give the final compound concentrations of 10 μM and 1 μM. For the dose-response experiments the test compounds were sequentially diluted to provide the desired concentration range for the […] determination. In each case the compounds were pre-incubated with the membrane for 20 min, before adding the radioligand.
After incubation with the radioligand for 60 min at 37° C., the incubation was terminated by rapid filtration of assay mixture through MultiScreen®HTS^+ 96-well filter plates (Millipore, Cat. #MSFCNXB), pre-soaked for 60 min with 50 mM Tris-HCl (pH 7.4) containing 0.33% polyethylenimine (PEI). The nonspecific binding (NSB) was determined in the presence of 10 μM unlabelled CP55,940. After drying the filter plate at 50° C. for at least 60 min, the filter-bound radioactivity was determined by scintillation spectrometry using the 1450 MicroBeta Plate Counter (Perkin Elmer, Boston, Mass.). From the dose-response experiments, the IC50 values were determined (see Table 1, CB2 IC50).
Where the test compound had about the same affinity for both receptors, this is represented by a value of 1.00 in the column for both receptors.

human CB1 receptor = biological target: T2, human CB1 receptor (Homo sapiens, UniProt P21554); test: CB1 radioligand competitive binding assay ([3H]CP 55,940 displacement); details: for IC50: displacement of 0.8 nM [3H]CP 55,940, membranes of CHO-K1 cells expressing human CB1 receptor; for Selectivity CB1: fold difference between CB1 and CB2 binding, (CB1 over CB2)
T2 construct: host or cells: CHO-K1
T2 sequence (P21554 whole entry): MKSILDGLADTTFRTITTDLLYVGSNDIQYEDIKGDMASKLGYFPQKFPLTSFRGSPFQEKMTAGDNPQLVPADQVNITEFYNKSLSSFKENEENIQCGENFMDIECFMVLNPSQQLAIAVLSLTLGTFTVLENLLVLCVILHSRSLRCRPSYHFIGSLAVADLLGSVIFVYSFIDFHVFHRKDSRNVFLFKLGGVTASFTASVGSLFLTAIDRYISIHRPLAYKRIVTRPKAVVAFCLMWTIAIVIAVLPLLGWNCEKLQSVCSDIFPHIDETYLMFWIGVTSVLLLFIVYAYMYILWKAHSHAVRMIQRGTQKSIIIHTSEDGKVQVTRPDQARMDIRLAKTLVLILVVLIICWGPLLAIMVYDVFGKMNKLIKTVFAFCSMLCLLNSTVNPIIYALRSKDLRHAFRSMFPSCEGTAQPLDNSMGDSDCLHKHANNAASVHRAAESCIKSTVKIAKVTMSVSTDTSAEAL

SMILES: CCCCCc1cc(O)c(C/C=C(\C)CCC=C(C)C)c(O)c1-c1ccncc1 [Compound 14, 2-(3,7-dimethylocta-2,6-dien-1-yl)-5-pentyl-4-(pyridin-4-yl)benzene-1,3-diol]
- IC50 (human CB2 receptor): 500 to 990 nM
- Selectivity CB2 (human CB2 receptor): 2.27 fold
- IC50 (human CB1 receptor): 1000 to 4990 nM

SMILES: CCCCCc1cc(O)c(C/C=C(\C)CCC=C(C)C)c(O)c1-c1ccco1 [Compound 15, 2-(3,7-dimethylocta-2,6-dien-1-yl)-4-(furan-2-yl)-5-pentylbenzene-1,3-diol]
- IC50 (human CB2 receptor): 1000 to 4990 nM
- Selectivity CB2 (human CB2 receptor): 2.11 fold
- IC50 (human CB1 receptor): 1000 to 4990 nM

SMILES: CCCCCc1cc(O)c(C/C=C(\C)CCC=C(C)C)c(O)c1-c1ccsc1 [Compound 17, 2-(3,7-dimethylocta-2,6-dien-1-yl)-5-pentyl-4-(thiophen-3-yl)benzene-1,3-diol]
- IC50 (human CB2 receptor): 500 to 990 nM
- Selectivity CB2 (human CB2 receptor): 2.10 fold
- IC50 (human CB1 receptor): 1000 to 4990 nM

SMILES: CCCCCc1cc(O)c(C/C=C(\C)CCC=C(C)C)c(O)c1-c1cncs1 [Compound 18, 2-(3,7-dimethylocta-2,6-dien-1-yl)-5-pentyl-4-(thiazol-5-yl) benzene-1,3-diol]
- IC50 (human CB2 receptor): 500 to 990 nM
- Selectivity CB2 (human CB2 receptor): 2.32 fold
- IC50 (human CB1 receptor): 1000 to 4990 nM

SMILES: CCCCCc1cc(O)c(C/C=C(\C)CCC=C(C)C)c(O)c1-c1cnc2ccccc2c1 [Compound 42, 2-(3,7-dimethylocta-2,6-dien-1-yl)-5-pentyl-4-(quinolin-3-yl) benzene-1,3-diol]
- IC50 (human CB2 receptor): 1000 to 4990 nM
- IC50 (human CB1 receptor): 500 to 990 nM
- Selectivity CB1 (human CB1 receptor): 2.69 fold

SMILES: CCCc1cc(O)c(C/C=C(\C)CCC=C(C)C)c(O)c1-c1cc2ccccc2o1 [Compound 44, 4-(benzofuran-2-yl)-2-(3,7-dimethylocta-2,6-dien-1-yl)-5-propylbenzene-1,3-diol]
- IC50 (human CB2 receptor): 1000 to 4990 nM
- IC50 (human CB1 receptor): 500 to 990 nM
- Selectivity CB1 (human CB1 receptor): 1.67 fold

SMILES: CCCCCc1cc(O)c(C/C=C(\C)CCC=C(C)C)c(O)c1-c1cc2ccccc2o1 [Compound 32, 4-(benzofuran-2-yl)-2-(3,7-dimethylocta-2,6-dien-1-yl)-5-pentylbenzene-1,3-diol]
- IC50 (human CB2 receptor): 1000 to 4990 nM
- IC50 (human CB1 receptor): 500 to 990 nM
- Selectivity CB1 (human CB1 receptor): 1.16 fold

SMILES: CCCCCc1cc(O)c(C/C=C(\C)CCC=C(C)C)c(O)c1-c1ccc2nccnc2c1 [Compound 40, 2-(3,7-dimethylocta-2,6-dien-1-yl)-5-pentyl-4-(quinoxalin-6-yl)benzene-1,3-diol]
- IC50 (human CB2 receptor): 1000 to 4990 nM
- IC50 (human CB1 receptor): 500 to 990 nM
- Selectivity CB1 (human CB1 receptor): 1.65 fold

SMILES: CCCCCc1cc(O)c(C/C=C(\C)CCC=C(C)C)c(O)c1-c1ccnc(C)c1 [Compound 39, 2-(3,7-dimethylocta-2,6-dien-1-yl)-4-(2-methylpyridin-4-yl)-5-pentylbenzene-1,3-diol]
- IC50 (human CB2 receptor): 500 to 990 nM
- Selectivity CB2 (human CB2 receptor): 2.18 fold
- IC50 (human CB1 receptor): 1000 to 4990 nM

SMILES: CCCCCc1cc(O)c(C/C=C(\C)CCC=C(C)C)c(O)c1-c1ccc2[nH]ncc2c1 [Compound 41, 2-(3,7-dimethylocta-2,6-dien-1-yl)-4-(1H-indazol-5-yl)-5-pentylbenzene-1,3-diol]
- IC50 (human CB2 receptor): 500 to 990 nM
- IC50 (human CB1 receptor): < 500 nM
- Selectivity CB1 (human CB1 receptor): 79.18 fold

SMILES: CCCc1cc(O)c(C/C=C(\C)CCC=C(C)C)c(O)c1-c1ccsc1 [Compound 43, 2-(3,7-dimethylocta-2,6-dien-1-yl)-5-propyl-4-(thiophen-3-yl) benzene-1,3-diol]
- IC50 (human CB2 receptor): 500 to 990 nM
- Selectivity CB2 (human CB2 receptor): 2.26 fold
- IC50 (human CB1 receptor): 1000 to 4990 nM

SMILES: CCCCCc1cc(O)c(C/C=C(\C)CCC=C(C)C)c(O)c1-c1cncnc1 [Compound 13, 2-(3,7-dimethylocta-2,6-dien-1-yl)-5-pentyl-4-(pyrimidin-5-yl) benzene-1,3-diol]
- IC50 (human CB2 receptor): 1000 to 4990 nM
- Selectivity CB2 (human CB2 receptor): 1.85 fold
- IC50 (human CB1 receptor): 1000 to 4990 nM

SMILES: CCCCCc1cc(O)c(C/C=C(\C)CCC=C(C)C)c(O)c1-c1cn[nH]c1 [Compound 38, 2-(3,7-dimethylocta-2,6-dien-1-yl)-5-pentyl-4-(1H-pyrazol-4-yl) benzene-1,3-diol]
- IC50 (human CB2 receptor): 500 to 990 nM
- Selectivity CB2 (human CB2 receptor): 1.21 fold
- IC50 (human CB1 receptor): 500 to 990 nM

SMILES: CCCCCc1cc(O)c(C/C=C(\C)CCC=C(C)C)c(O)c1-c1c(C)noc1C [Compound 37, 4-(3,5-dimethylisoxazol-4-yl)-2-(3,7-dimethylocta-2,6-dien-1-yl)-5-pentylbenzene-1,3-diol]
- IC50 (human CB2 receptor): 1000 to 4990 nM
- Selectivity CB2 (human CB2 receptor): 7.14 fold
- IC50 (human CB1 receptor): > 5000 nM

SMILES: CCCCCc1cc(O)c(C/C=C(\C)CCC=C(C)C)c(O)c1-c1cc(C)cs1 [Compound 34, 2-(3,7-dimethylocta-2,6-dien-1-yl)-4-(4-methylthiophen-2-yl)-5-pentylbenzene-1,3-diol]
- IC50 (human CB2 receptor): < 500 nM
- Selectivity CB2 (human CB2 receptor): 2.15 fold
- IC50 (human CB1 receptor): 500 to 990 nM

SMILES: CCCCCc1cc(O)c(C/C=C(\C)CCC=C(C)C)c(O)c1-c1cc2ccccc2s1 [Compound 33, 4-(benzo[b]thiophen-2-yl)-2-(3,7-dimethylocta-2,6-dien-1-yl)-5-pentylbenzene-1,3-diol]
- IC50 (human CB2 receptor): 500 to 990 nM
- Selectivity CB2 (human CB2 receptor): 1.45 fold
- IC50 (human CB1 receptor): 1000 to 4990 nM

SMILES: CCCCCc1cc(O)c(C/C=C(\C)CCC=C(C)C)c(O)c1-c1cccc(N2CCOCC2)c1 [Compound 36, 3-(3,7-dimethylocta-2,6-dien-1-yl)-3′-morpholino-6-pentyl-[1,1′-biphenyl]-2,4-diol]
- IC50 (human CB2 receptor): < 500 nM
- Selectivity CB2 (human CB2 receptor): 8.93 fold
- IC50 (human CB1 receptor): < 500 nM

SMILES: CCCCCc1cc(O)c(C/C=C(\C)CCC=C(C)C)c(O)c1-c1ccnn1C [Compound 35, (E)-2-(3,7-dimethylocta-2,6-dien-1-yl)-4-(1-methyl-1H-pyrazol-5-yl)-5-pentylbenzene-1,3-diol]
- IC50 (human CB2 receptor): 1000 to 4990 nM
- Selectivity CB2 (human CB2 receptor): 1.21 fold
- IC50 (human CB1 receptor): 1000 to 4990 nM
